# Measured values reported in patent publication US20230340012A1, “NATURAL AND SYNTHETIC COMPOUNDS FOR TREATING CANCER AND OTHER DISEASES” (PACIFIC ARROW LIMITED, priority 2009, published 2023).
# Columns and labels:
# [1] = system: DR5 (TNFRSF10B) in CAPAN cells; assay: DR5 Western blot, CAPAN cells; assay type: cell-based, human; settings: Tig-R 10 ug/ml, 2 days
# Procedure: A. Cells and drug-treatment: HepG2 cells (liver cancer cells), CAPAN cells, ES2 cells (Ovary cell) were cultured in DMEM medium with 10% FBS, antibiotics (Pen Strep) and L-Glutamine in a 37° C., 5% CO2 incubator. Cells in log-growth phase were treated with Tig-R (10 ug/ml), Tig-S (4 ug/ml) or DMSO (as control) for 2 days.
# B. Total cell protein extraction: Drug-treated cells were collected, pelleted with centrifugation. The cell pellet was extracted with SDS-Sample buffer (containing PMSF and protease inhibitors cocktail). About 0.1 gram cell pellet was extracted in 1 ml of extraction buffer. The cell extract was then incubated in boiling water bath for 6 minutes with occasionally vortexing. The protein extract was immediately frozen in -80° C. before used.
# C. SDS gel electrophoresis: 10-20 ug of protein sample was loaded into each lane of a 10% SDS gel. Electrophoresis was conducted with 100 volt constant for 2 hours.
# D. Western Blot: Separated proteins from SDS gel were transferred to a nitrocellulose membrane, which was blocked with 5% non-fat dry milk. The membrane was then exposed to 1st antibody (anti-TNFRSF10B) over night, then washed. The membrane was then incubated in 2nd antibody (anti-mouse-AP conjugated) for an hour, then washed. The immuno-bands were developed with BCIP/NBT substrate.
# E. Another SDS gel with same sample loading was stained with Coomassie Brilliant Blue (CBB) for protein staining.
# F. Determination of Western blot band intensity: The band-images of Western blot were captured with a digital camera and the intensity of bands was determined using “Image J” software.
# [2] = system: Capan cells (pancreas carcinoma); assay: Agonist activity of anti-DR5 antibody with Tig-R in Capan cells, MTT; assay type: cell-based, human
# Procedure: Capan cells (pancreas carcinoma) were cultured in RPMI1640 medium supplemented with 10% FBS, antibiotics (Pen Strep) and L-Glutamine. Cells were incubated in a 37° C., 5% CO2 incubator.
# Antibody: Antibody against Human TRAIL R2/TNFRSF 10B, (from R&D Systems cat# MAB631-100).
# Treatment. Cells in log-growth phase were used. Cells were plated in 96-welled plate with 10 K/well 1-2 days before treatment.
# Antibody are serially diluted with medium before adding to culture and incubated for 2 days.
# After a treatment for 2 days, the quantity of live cells is then determined with MTT assay*. The percentage of cell growth with drugs was determined by comparing to the no-drug (DMSO) control.
substance,measurement,setting,value
"24,28-O-Tigloyl-3β,16α, 21β, 22a, 24β, 28-hexahydroxyolean-12-ene [Tig-R]",DR5 Western blot band intensity (Image J),[1]; CAPAN cells,29128
same,"DR5 band intensity, % of DMSO",[1]; CAPAN cells,151%
same,increase of DR5 over DMSO control cells,[1]; CAPAN,51%
same,combined effect with anti-DR5 antibody,"[2]; Capan, Tig-R 2.5 or 5 ug/ml",synergistic
same,% Inhibition Experimental,[2]; R 2.5 ug/ml alone,20%
same,% Inhibition Experimental,[2]; R 5 ug/ml alone,29%
